According to the NIST ThermoML archive (doi:10.1021/je060355j):

Columns and labels:
[1] = Liquid; for mass density: 101.32 kPa
[2] = refractive index (Na D-line) (dimensionless); conditions: 101.33 kPa, Liquid
[3] = xn = mol fraction of the nth substance listed; conditions: 101.32 kPa, Liquid
[4] = excess molar enthalpy (molar enthalpy of mixing); xn = mol fraction of the nth substance listed; conditions: 291.15 K, 101.32 kPa, Liquid

CCOC=O [ethyl methanoate]
Conditions | mass density, 291.15 K [kg/m3] | mass density, 298.15 K [kg/m3] | mass density, 308.15 K [kg/m3] | mass density, 318.15 K [kg/m3] | refractive index, 291.15 K | refractive index, 298.15 K | refractive index, 318.15 K | vapor or sublimation pressure, 327.33 K [kPa]
[1] | 924.7 | 915.16 | 902.07 | 888.42 | – | – | – | 101.32
[2] | – | – | – | – | 1.3614 | 1.358 | 1.3474 | –

CCCOC=O [propyl methanoate]
Conditions | mass density, 291.15 K [kg/m3] | mass density, 298.15 K [kg/m3] | mass density, 308.15 K [kg/m3] | mass density, 318.15 K [kg/m3] | refractive index, 291.15 K | refractive index, 298.15 K | refractive index, 318.15 K | vapor or sublimation pressure, 353.92 K [kPa]
[1] | 907.8 | 899.08 | 888.36 | 875.32 | – | – | – | 101.32
[2] | – | – | – | – | 1.3778 | 1.375 | 1.365 | –

CCCCOC=O [butyl methanoate]
Conditions | mass density, 291.15 K [kg/m3] | mass density, 298.15 K [kg/m3] | mass density, 308.15 K [kg/m3] | mass density, 318.15 K [kg/m3] | refractive index, 291.15 K | refractive index, 298.15 K | refractive index, 318.15 K | vapor or sublimation pressure, 380.13 K [kPa]
[1] | 896 | 888.66 | 878.24 | 867.21 | – | – | – | 101.32
[2] | – | – | – | – | 1.3904 | 1.3872 | 1.3776 | –

CCCCCC [hexane] + CCCCOC=O
[3], x2 = 0
Conditions | mass density [kg/m3]
291.15 K | 661.2
298.15 K | 654.89
308.15 K | 646.07
318.15 K | 636.43

CCCCCC [hexane] + CCOC=O
[3], x2 = 0
Conditions | mass density [kg/m3]
291.15 K | 661.2
298.15 K | 654.89
308.15 K | 646.07
318.15 K | 636.43

COC=O [methyl methanoate] + CCCCCC
[4]
Conditions | excess molar enthalpy [kcal/mol]
x1 = 0.1408 | 0.253
x1 = 0.252 | 0.389
x1 = 0.3379 | 0.462
x1 = 0.4008 | 0.492
x1 = 0.4618 | 0.504
x1 = 0.5094 | 0.502
x1 = 0.5501 | 0.493
x1 = 0.5862 | 0.481
x1 = 0.6157 | 0.462
x1 = 0.6568 | 0.439
x1 = 0.7033 | 0.41
x1 = 0.7517 | 0.37
x1 = 0.7971 | 0.33
x1 = 0.845 | 0.281
x1 = 0.8923 | 0.219
x1 = 0.9292 | 0.153
x1 = 0.9665 | 0.0896

mass density [kg/m3], [3]
Conditions | 291.15 K | 298.15 K
x1 = 0.019 | 663 | –
x1 = 0.0376 | – | 659.63
x1 = 0.0499 | 666.3 | –
x1 = 0.0816 | – | 664.26
x1 = 0.0863 | 670.6 | –
x1 = 0.1013 | 672.6 | –
x1 = 0.1209 | 675.3 | –
x1 = 0.1327 | – | 670.55
x1 = 0.1642 | – | 674.8
x1 = 0.2033 | 687.1 | –
x1 = 0.2352 | – | 685.32
x1 = 0.2936 | – | 695.29
x1 = 0.2986 | 702.6 | –
x1 = 0.3828 | 718.9 | –
x1 = 0.3903 | – | 714.41
x1 = 0.4841 | 742.3 | –
x1 = 0.4987 | – | 740.05
x1 = 0.5462 | 759.1 | –
x1 = 0.5979 | – | 768.9
x1 = 0.6061 | 777.4 | –
x1 = 0.6987 | 810.1 | –
x1 = 0.7062 | – | 806.5
x1 = 0.7433 | – | 821.74
x1 = 0.7445 | 829.1 | –
x1 = 0.7956 | 851.5 | –
x1 = 0.7972 | – | 845.31
x1 = 0.8392 | 872.6 | –
x1 = 0.8497 | – | 871.94
x1 = 0.903 | 908.4 | –
x1 = 0.905 | – | 902.05
x1 = 0.9539 | 939.9 | –
x1 = 0.9582 | – | 936.28
x1 = 1 | 976.9 | 966.54

CCCCCC [hexane] + COC=O
[3], x2 = 0
Conditions | mass density [kg/m3]
291.15 K | 661.2
298.15 K | 654.89

COC=O [methyl methanoate]
Conditions | mass density, 291.15 K [kg/m3] | mass density, 298.15 K [kg/m3] | refractive index, 291.15 K | refractive index, 298.15 K | vapor or sublimation pressure, 304.7 K [kPa]
[1] | 976.9 | 966.54 | – | – | 101.32
[2] | – | – | 1.3452 | 1.3415 | –

CCCCCC [hexane]
Conditions | mass density, 291.15 K [kg/m3] | mass density, 298.15 K [kg/m3] | mass density, 308.15 K [kg/m3] | mass density, 318.15 K [kg/m3] | refractive index, 291.15 K | refractive index, 298.15 K | refractive index, 318.15 K | vapor or sublimation pressure, 341.76 K [kPa]
[1] | 661.2 | 654.89 | 646.07 | 636.43 | – | – | – | 101.32
[2] | – | – | – | – | 1.3765 | 1.372 | 1.3618 | –

CCCCCC [hexane] + CCCOC=O
[3], x2 = 0
Conditions | mass density [kg/m3]
291.15 K | 661.2
298.15 K | 654.89
308.15 K | 646.07
318.15 K | 636.43
